In patent US20260008793A1, “IONIZABLE CATIONIC LIPIDS INCORPORATING SILICON” (ALDEXCHEM KFT., priority 2022, published 2026):

Tests used:
[1] = LNP size, PDI and zeta potential by Dynamic Light Scattering (Method A); assay type: physicochemical; details: LNP formulated by Method A; for Zeta potential (mV): 1xPBS pH 7.4; for PDI / Size (nm): DLS; for Size (nm): Luciferase-mRNA loaded
Description: (§1) The synthesized lipids were tested in term of in vitro transfection efficacy and toxicity on HeLa cells. In order to perform the mentioned biological tests, appropriate LNPs had to be formulated from the synthesized lipids. The formulation technique was different in Method A and B. The particle size, PDI and zeta potential of resulting LNPs were determined by means of Dynamic Light Scattering technique (DLS). Prior to biological testing the encapsulation efficiency (EE) of the loaded LNPs was determined by using RiboGreen RNA assay. In case of Method A Luciferase-mRNA while in case of Method B GFP-mRNA was transfected into the cells. In parallel with the transfection experiments, toxicity of the investigated LNPs was determined, in case of Method A resazurin assay while in case of Method B MTT assay was used. In the case of some lipids, the apparent pKa in LNPs was determined by using TNS titration based on the method described: Angew Chem Int Ed Engl. 2012, 51 (34), 8529-8533, doi: 10.1002/anie.201203263).
• 1. If needed, prepare stock solutions by solving known amounts of lipid powder into an appropriate solvent. The recommended solvent is Ethanol and the recommended concentration is typically in the range 10-50 mM. Higher concentrations are preferred to allow flexibility on mRNA-LNP concentration. • 2. Remove the lipid stock solutions from the −20° C. freezer. For long-term storage, −80° C. is used. • 3. Check the vials for precipitation, DOPE (CAS #4004-05-1) (20 mM) and DSPE-PEG (CAS #474922-26-4) (5 mM) may need a 5-30 minute incubation step at 37° C. with intermittent vortexing to resuspend all contents. […] As a last resort, lipids may be heated to 50° C. to resuspend, time should be kept as short as possible to prevent oxidation or other modifying or degradative processes. • 4. Mix the lipids by vortexing for 2 minutes. • 5. […] Cooling the solution prevent excessive evaporation of ethanol or similar solvents upon opening. • 6. Meanwhile, thaw the RNA samples, including the latest SecNLuc control, by inserting the frozen tube in a room temperature aluminium block. • 7. Prepare for each LNP-formulation with identical mRNA component, an RNA master mix according to Table 1 below in a fresh tube. Use of a master mix allows more precise comparison of lipid formulations relative to each other. Split the master mix over a number of fresh tubes equal to the number of samples+controls. Each tube contains 375 μl of mRNA in 10 mM Citrate pH 4.0. • 8. Prepare for each LNP formulation with identical lipid composition a Lipid master mix according to Table 1 below in a fresh tube, exclude the lipid of interest. Use of a master mix allows more precise comparison of the novel ionizable lipid relative to each other. Split the master mix over a number of fresh tubes equal to the number of samples+controls. Each tube contains 65.5 μl of lipid master mix. • 9. Add the ionizable lipid of interest to the equally divide lipid master mix. Mix well by pipetting up and down. Label the tube according to the ionizable lipid used. • 10. Power on the ‘L 1 formulation machine’ (L 1 FM) and allow it to do a calibration of motor positions.
• 18. Fill a fresh syringe (C) through a blunt 18 G stainless steel needle with the previously prepared RNA mixture of step 6. The volume should be approximately […] of total formulation volume+25 μl (dead-volume). Make sure to remove all air bubbles by tapping. • 19. Fill a fresh syringe (D) through a blunt 18 G stainless steel needle with the Lipid master mix. The volume should be approximately 35% of total formulation volume+25 μl (dead-volume). Again, Make sure to remove all bubbles. • 20. Attach the syringes in the correct orientation, syringe A on the left and syringe B on the right • 21. Load the ‘Receiving station’ with appropriate sized collection containers (2 ml Eppendorf tubes). • 22. Press the microfluidic chip to the back of the machine with your thumb and hold, press the ‘Button 1’ (40 g). […]

HeLa cells = assay: Transfection efficiency with Luciferase-mRNA, Nano-Glo assay (Method A); assay type: cell-based; details: 100 ng Luciferase (SecNLuc) mRNA, 24 h, luminescence
Description: as §1
• 1. Prepare mRNA solution by adding 100 ng mRNA (SecNLuc, #P009024, RiboPro) to 5 μl Opti-MEM • a. multiply by number of wells, include different concentrations and add 10% extra • b. a standard set-up we use is 100 ng-50 ng-10 ng mRNA/well in triplicate, which would need 528 ng mRNA (includes 10% extra)
• 2. (If applicable) Prepare different concentrations in Opti-MEM (for instance 100/50/10 ng). • 3. Add 10 μl to each well and mix carefully by pipetting. • 4. Mix by swirling the plate horizontally at modest speed. Reverse in direction 3 times. • 5. Incubate for 24 hours (incubator).
This protocol is applied to measure luciferase activity for secreted NanoLuc and is based on the protocol by Promega (Nano-Glo® Luciferase Assay System #N1110-1150). The protocol is designed for a 384-wells plate, but volumes can be changed accordingly for other plates.
• 1. Plate cells (HeLa) in 96-well plate, grow until 80% confluent and transfect with SecNanoLuc mRNA and incubate for the desired period (24 h). • 2. After incubation, the translated protein is accumulated in the medium. Transfer medium to a new plate or tubes • 3. Transfer 12 μl of each sample to a black-walled, clear-bottom 384-well plate • a. Black-walled plates are important to prevent shine-through of luminescence from other wells; alternatively, multiple wells between samples can be left empty • 4. Set-up plate reader • 5. Prepare the desired amount of Nano-Glo® Luciferase Assay Reagent by combining one volume of Nano-Glo® Luciferase Assay Substrate with 50 volumes of Nano-Glo® Luciferase Assay Buffer • a. composition: 100 mM MES pH 6; 1 mM EDTA; 0.5% NP-50; 150 mM KCl; 1 mM DTT; 35 mM Thiourea • b. Briefly spin tubes containing substrate in a microcentrifuge before use • 6. Add and mix (by pipetting) 12 μl Nano-Glo® Luciferase Assay Reagent per well • a. Wait approximately 3 minutes before measuring luminescence. […] Measure luminescence in plate reader using standard protocol luciferase (this includes mixing sample in plate reader)

| SMILES | Zeta potential (mV) [1] [mV] | PDI [1] | Size (nm) [1] [nm] | Transfection* (Method A = 100 ng mRNA) (HeLa cells) |
| --- | --- | --- | --- | --- |
| CCCCCCCCO[Si](C)(C)O[Si](C)(C)OC(CCCCCCC)OCCCCCCN(CCCCO)CCC[C@@H](C)C1CCC2C3CCC4C[C@H](OC)CC[C@]4(C)C3CC[C@@]21C (stereo partly drawn) [Example 221, 13-heptyl-5-((4R)-4-((3R,10S,13R)-3-methoxy-10,13-dimethylhexadecahydro-1H-cyclopenta[a]phenanthren-17-yl)pentyl)-15,15,17,17-tetramethyl-12,14,16,18-tetraoxa-5-aza-15,17-disilahexacosan-1-ol] | −13.99 | 0.011 | 142.1 | 73949 |
| CCCCCCCCCCSC(CCCC)C(=O)OCCCCCCN(CCCCO)CCCCCCOC(CCCCCCC)O[Si](C)(C)OCC(CCCCCC)CCCCCCCC (stereo not shown) [Example 175, 15-heptyl-20-hexyl-7-(4-hydroxybutyl)-17,17-dimethyl-14,16,18-trioxa-7-aza-17-silaoctacosyl 2-(decylthio)hexanoate] | −11.78 | 0.068 | 161.2 | 119238.5 |
| CCCCCCCCO[Si](C)(C)O[Si](C)(C)OC(CCCCCCC)OCCCCCCN(CCCCO)CCCCCCOC(=O)C(CCCCCCCC)SCCCCC (stereo not shown) [Example 184, 15-heptyl-7-(4-hydroxybutyl)-17,17,19,19-tetramethyl-14,16,18,20-tetraoxa-7-aza-17,19-disilaoctacosyl 2-(pentylthio)decanoate] | −14.83 | 0.146 | 237.5 | 883795 |
| CCCCCCCCOC(CCCCCN(CCCCO)CCC[C@@H](C)C1CCC2C3CCC4C[C@H](OC)CC[C@]4(C)C3CC[C@@]21C)O[Si](C)(C)OCCCCCCCC (stereo partly drawn) [Example 216, 5-((4R)-4-((3R,10S,13R)-3-methoxy-10,13-dimethylhexadecahydro-1H-cyclopenta[a]phenanthren-17-yl)pentyl)-13,13-dimethyl-11-(octyloxy)-12,14-dioxa-5-aza-13-siladocosan-1-ol] | −15.48 | 0.228 | 269.1 | 817325 |
| CCCCCCCC[Si](C)(C)O[Si](C)(C)OC(CCCCCCC)OCCCCCCN(CCCCO)CCC[C@@H](C)C1CCC2C3CCC4C[C@H](OC)CC[C@]4(C)C3CC[C@@]21C (stereo partly drawn) [Example 219, 13-heptyl-5-((4R)-4-((3R,10S,13R)-3-methoxy-10,13-dimethylhexadecahydro-1H-cyclopenta[a]phenanthren-17-yl)pentyl)-15,15,17,17-tetramethyl-12,14,16-trioxa-5-aza-15,17-disilapentacosan-1-ol] | −16.69 | 0.076 | 139.4 | 531876 |
| CCCCCCCCOC(CCCCCN(CCCCO)CCCCCCOC(=O)C(CCCCCCCC)SCCCCC)O[Si](C)(C)OCCCCCCCC (stereo not shown) [Example 179, 7-(4-hydroxybutyl)-15,15-dimethyl-13-(octyloxy)-14,16-dioxa-7-aza-15-silatetracosyl 2-(pentylthio)decanoate] | −10.65 | 0.038 | 189.1 | 41726 |
| CCCCCCCCOC(CCCCCN(CCCCO)CCCCCCOC(=O)C(CCCCCCCC)SCCCCC)O[Si](C)(C)O[Si](C)(C)CCCCCCCC (stereo not shown) [Example 181, 6-((4-hydroxybutyl)(6-(octyloxy)-6-((1,1,3,3-tetramethyl-3-octyldisiloxaneyl)oxy)hexyl)amino)hexyl 2-(pentylthio)decanoate] | −14.73 | 0.049 | 188.6 | 14238 |
